Measurements reported in US9505743B2, “Matrix metalloproteinase inhibitors and methods for the treatment of pain and other diseases” (AQUILUS PHARMACEUTICALS, INC., priority 2012, dated 2016).

What was measured:
[1] = molecular target: Catalytic domain of MMP-13 (human recombinant) (Homo sapiens (Human), UniProt P45452); assay: MMP-13 inhibition assay; type: biochemical
Procedure: Catalytic domain of MMP-13 (human recombinant) enzyme was then added to the compound solution. […] The time-dependent increase in fluorescence is measured at the 355 nm excitation and 405 nm emission by automatic plate multireader.

[2] = In vivo rat pharmacokinetics, oral administration; details: plasma, PO 1.0 mg/kg, male Lewis rats, mean
Procedure: Six (6) male Lewis rats were used. Fasting was conducted at least 16 hours prior to dose administration. Food was returned at approximately 4 hours post dose. The animals were placed into 2 groups of 3 animals per group. The oral (PO) formulation for Groups 1 & 2 were prepared on the day of dosing at a target concentration of 0.5 mg/mL in 0.5% Methylcellulose (400 cps) to produce a white, homogeneous suspension. Dosing was performed as outlined in Table 24:
Each animal in Group 1 received prepared compound (56) by oral dose administration at a target dose level of 1.0 mg/kg and at a dose volume of 2 mL/kg. Each animal in Group 2 received prepared compound (45) by oral dose administration at a target dose level of 1.0 mg/kg and at a dose volume of 2 mL/kg (Table 24). Whole blood samples (0.250 mL; K2EDTA anticoagulant) were collected from each animal through a jugular vein catheter. Whole blood samples were collected from all animals pre-dose, and at 0.25, 0.5, 1, 2, 4, 8, 16, and 24 hours after dose administration. All blood samples were immediately placed on ice until processing. Whole blood samples were centrifuged at 2200×g for 10 minutes in a refrigerated centrifuge (5±3° C.) to isolate plasma. The plasma samples were transferred to individual polypropylene vials and immediately placed on dry ice before storage at nominally −20±5° C. The plasma samples some time later were then thawed and extracted and analyzed by high pressure liquid chromatography (HPLC) coupled to Mass Spectrometery (MS) (Table 25). Pharmacokinetic parameters (Table 25) were estimated using WinNonlin® pharmacokinetic software (Version No. 5.2.1) using a non-compartmental approach consistent with the PO route of administration.

[3] = clinical; cited from earlier work
[4] = In-vitro human microsomal stability; type: in vitro ADME; details: human microsomes, compound 1 microMoles, at T = 60 minutes
Procedure: (§1) Human and Rat microsomal stability was determined for select compounds following the method of Houston (Houston, J B; Biochem. Pharmacol. 47, (1994), 1469). 1 μM concentration of compound and separate human and Rat microsomes (0.3 mg/mL, BD bioscience) were used in the in-vitro assay. To ensure proper energy supply for microsomal degradation of compound, an energy regenerating system comprised of 100 mM potassium phosphate, 2 mM NADPH, 3 mM MgCl2, pH=7.4 and the microsomal protein is added to each sample and the resulting suspension is then incubated in duplicate for 60 min at 37° C. in a rotary shaker. A control is run for each test agent in duplicate omitting NADPH to detect NADPH-free degradation. At T=0 and T=60 min., an aliquot is removed from each experimental and control reaction and then mixed with an equal volume of ice-cold Stop Solution (consisting of 0.3% acetic acid in acetonitrile containing haloperidol and diclofenac as internal standards). Stopped reactions are then incubated for at least ten minutes at −20° C., and an additional volume of water is then added. The samples are then centrifuged to remove precipitated protein, and the supernatants are then analyzed by LC-MS/MS to determine the percentage of compound remaining. The LC-MS/MS system used was an Agilent 6410 mass spectrometer coupled with an Agilent 1200 HPLC and a CTC PAL chilled autosampler, all controlled by MassHunter software (Agilent), or an ABI2000 mass spectrometer coupled with an Agilent 1100 HPLC and a CTC PAL chilled autosampler, all controlled by Analyst software (ABI). After separation on a C18 reverse phase HPLC column (Agilent, Waters, or equivalent) using an acetonitrile-water gradient system, peaks were analyzed by mass spectrometry (MS) using ESI ionization in MRM mode. Verapamil (high metabolized) and Warfarin (low metabolized) are used as controls to test the activity of the microsomal proteins. Table 15 and 16 below show the microsomal stability of select compounds in both human and Rat microsomes.

[5] = In-vitro rat microsomal stability; type: in vitro ADME; details: rat microsomes, compound 1 microMoles, at T = 60 minutes
Procedure: as §1

[6] = molecular target: Catalytic domain of MMP-2 (human recombinant) (Homo sapiens (Human), UniProt P08253); assay: MMP-2 inhibition assay; details: read-out: Average Percent Inhibition MMP-2
Procedure: A concentration of MMP inhibitor of the present invention was tested (10 microMolar) in duplicate runs. Catalytic domain of MMP-2 (human recombinant) enzyme (10 nanoMolar) was added to the compound solution. The mixture of enzyme and compound in assay buffer was then thoroughly mixed and incubated for 60 minutes at 37° C. Upon the completion of incubation, the assay was then started by the addition of 10 μM of fluorescent substrate Mca-P-L-G-L-Dpa-A-R-NH2 (Kd ˜8 microMolar). The fluorescent product, McaPLG, was then measured at excitation of 355 nm and emission 405 nm by an automatic plate multireader at 37° C. […] Any inhibition <50% is considered not active under these assay conditions.

[7] = molecular target: Catalytic domain of MMP-9 (human recombinant) (Homo sapiens (Human), UniProt P14780); assay: MMP-9 inhibition assay; type: biochemical; details: compound 10 microMolar; substrate DNP-Pro-Cha-Gly-Cys(Me)-His-Ala-Lys(N-Me-Abz)-NH2 10 microMolar; <50% considered not active; read-out: Average Percent Inhibition MMP-9
Procedure: A concentration of MMP inhibitor of the present invention was tested (10 microMolar) in duplicate runs. Catalytic domain of MMP-9 (human recombinant) enzyme (10 nanoMolar) was added to the compound solution. The mixture of enzyme and compound in assay buffer was then thoroughly mixed and incubated for 60 minutes at 37° C. Upon the completion of incubation, the assay was started by the addition of 10 μM of fluorescent substrate DNP-Pro-Cha-Gly-Cys(Me)-His-Ala-Lys(N-Me-Abz)-NH2 [Cha=β-cyclohexylalanyl; Abz=2-aminobenzoyl(anthraniloyl)] (Kd ˜7 microMolar). […] Any inhibition <50% is considered not active under these assay conditions.

[8] = molecular target: Catalytic domain of MMP-1 (human recombinant) (Homo sapiens (Human), UniProt P03956); assay: MMP-1 inhibition assay; type: biochemical; details: compound 10 microMolar; substrate 10 microMolar; <50% considered not active; read-out: Average Percent Inhibition MMP-1
[9] = molecular target: Catalytic domain of MMP-3 (human recombinant) (Homo sapiens (Human), UniProt P08254); assay: MMP-3 inhibition assay; type: biochemical; details: compound 10 microMolar; substrate McaRPKPVENvalWRK(Dnp)NH2 10 microMolar; <50% considered not active; read-out: Average Percent Inhibition MMP-3
Procedure: Catalytic domain of MMP-3 (human recombinant) enzyme was then added to the compound solution. […] A positive control was then run separately using the broad spectrum MMP inhibitor Tyr-hydroxamic acid as a control compound. […]

MMP-12 = MMP-12 (Homo sapiens (Human), UniProt P39900); assay: MMP-12 inhibition assay (electrophoretic mobility shift); type: biochemical; details: compound 10 microMolar; Fluorescein-labeled peptide 4 microMolar; <50% considered not active; read-out: Average Percent Inhibition MMP-12
Procedure: MMP-12 inhibitor activity was carried out by first separating the cleaved and uncleaved substrates by charge via electrophoretic mobility shift and then measuring the fluorescence of the separated products and comparing them with control reactions to determine inhibition of enzyme activity. The MMP-12 assay was then run using an assay buffer comprising of 100 mM HEPES, pH 7.5, 0.01% Brij-35, 1.5 mM NaCl and 2 mM CaCl2. […] The reaction was started by first adding the substrate and then incubating the reaction mixture for 1 hour at room temperature. The reaction was then terminated via the addition of a stop buffer consisting of 100 mM HEPES (pH 7.5), 30 mM EDTA, 0.015% Brij-35, and 5% DMSO. […]

Catalytic domain of MMP-2 (human recombinant), sequence (P08253 110-465): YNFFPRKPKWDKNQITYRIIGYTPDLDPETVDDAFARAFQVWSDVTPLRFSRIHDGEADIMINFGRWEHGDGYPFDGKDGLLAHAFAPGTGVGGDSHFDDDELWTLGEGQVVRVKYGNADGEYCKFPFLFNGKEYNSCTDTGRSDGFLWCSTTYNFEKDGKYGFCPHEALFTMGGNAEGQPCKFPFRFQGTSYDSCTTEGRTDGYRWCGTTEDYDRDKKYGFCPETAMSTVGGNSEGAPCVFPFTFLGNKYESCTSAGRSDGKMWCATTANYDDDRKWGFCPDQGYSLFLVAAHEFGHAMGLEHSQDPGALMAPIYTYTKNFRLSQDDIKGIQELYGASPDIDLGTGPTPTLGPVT
Catalytic domain of MMP-9 (human recombinant), sequence (P14780 107-444): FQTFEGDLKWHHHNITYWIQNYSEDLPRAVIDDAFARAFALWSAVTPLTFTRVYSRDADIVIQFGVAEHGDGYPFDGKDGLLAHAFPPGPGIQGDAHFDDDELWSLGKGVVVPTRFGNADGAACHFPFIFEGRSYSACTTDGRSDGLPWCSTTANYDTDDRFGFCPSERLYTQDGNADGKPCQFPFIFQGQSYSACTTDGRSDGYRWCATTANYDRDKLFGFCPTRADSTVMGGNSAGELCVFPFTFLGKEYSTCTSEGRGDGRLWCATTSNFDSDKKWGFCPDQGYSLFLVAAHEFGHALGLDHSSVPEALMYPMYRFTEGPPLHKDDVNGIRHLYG
Catalytic domain of MMP-1 (human recombinant), sequence (P03956 98-276): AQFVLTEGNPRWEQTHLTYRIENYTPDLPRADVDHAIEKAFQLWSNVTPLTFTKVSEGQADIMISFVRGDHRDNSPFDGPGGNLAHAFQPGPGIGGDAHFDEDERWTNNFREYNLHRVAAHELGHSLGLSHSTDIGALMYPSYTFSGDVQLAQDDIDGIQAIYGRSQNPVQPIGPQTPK
MMP-12, sequence (P39900 106-470, species assumed): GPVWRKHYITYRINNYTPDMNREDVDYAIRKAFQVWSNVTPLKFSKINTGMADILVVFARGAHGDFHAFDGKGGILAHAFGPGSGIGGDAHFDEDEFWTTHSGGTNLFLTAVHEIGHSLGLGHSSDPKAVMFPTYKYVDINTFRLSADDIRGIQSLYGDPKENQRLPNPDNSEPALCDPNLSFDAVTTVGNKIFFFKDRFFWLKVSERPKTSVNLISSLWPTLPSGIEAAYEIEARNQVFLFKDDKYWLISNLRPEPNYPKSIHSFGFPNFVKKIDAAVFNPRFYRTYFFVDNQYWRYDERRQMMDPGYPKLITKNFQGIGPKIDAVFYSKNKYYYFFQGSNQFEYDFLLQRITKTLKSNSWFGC
Catalytic domain of MMP-3 (human recombinant), sequence (P08254 100-272): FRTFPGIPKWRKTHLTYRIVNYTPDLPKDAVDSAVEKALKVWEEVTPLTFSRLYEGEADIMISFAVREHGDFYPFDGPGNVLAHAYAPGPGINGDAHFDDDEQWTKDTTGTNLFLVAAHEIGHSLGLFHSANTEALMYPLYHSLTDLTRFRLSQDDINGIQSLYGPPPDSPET

Compound `[2H]C([2H])(NC(=O)c1cc(C(=O)NCc2cccc(OC)c2)ncn1)c1ccc(C(=O)O)cc1` has an IC50 [1] of under 100 nM.

`Cc1cc(CNC(=O)c2cc(C(=O)NCc3ccc(C(=O)O)cc3)ncn2)ccc1F` [Compound 45, 4-({[6-(4-Fluoro-3-methyl-benzylcarbamoyl)-pyrimidine-4-carbonyl]-amino}-methyl)-benzoic acid] showed an AUC(0-inf) [2] of 428 ng·h/mL, an AUC(0-t) [2] of 414 ng·h/mL and a Cmax [2] of 310 ng/mL. For the same compound, the Tmax [2] was 24.6 min and the half-life [2] was 110 min.

Compound `[2H]C([2H])(NC(=O)c1cc(C(=O)NCc2ccc(F)c(C)c2)ncn1)c1ccc(C(=O)O)cc1` [Compound 56, 4-(Dideutero-{[6-(4-fluoro-3-methyl-benzylcarbamoyl)-pyrimidine-4-carbonyl]-amino}-methyl)-benzoic acid] has an AUC(0-inf) [2] of 705 ng·h/mL, an AUC(0-t) [2] of 697 ng·h/mL and a Cmax [2] of 362 ng/mL. The Tmax [2] was 45 min and the half-life [2] was 73.2 min.

In the case of `CNC(=O)[C@@H](NC(=O)[C@H](CC(C)C)[C@H](O)C(=O)NO)C(C)(C)C` [Marimastat, marimastat], the Toxicities in humans [3] is given as “time-dependent and dose-dependent musculoskeletal toxicities (arthralgia, myalgia, tendinitis)”.

With `Cc1cc(CNC(=O)c2cc(C(=O)NCc3ccc(C(=O)O)cc3)ncn2)ccc1F` [drawing 264] the “Mean Remaining Parent with NADPH (%)” value [4] was 103%.

For `[2H]C([2H])(NC(=O)c1cc(C(=O)NCc2ccc(F)c(C)c2)ncn1)c1ccc(C(=O)O)cc1` [drawing 265], the “Mean Remaining Parent with NADPH (%)” value [4] was 104%.

For `[2H]C([2H])(NC(=O)c1cc(C(=O)NCc2ccc(C(=O)O)cc2)ncn1)c1ccc(F)c(C)c1` [drawing 266], the “Mean Remaining Parent with NADPH (%)” value [4] was 95.6%.

For `COc1cccc(CNC(=O)c2cc(C(=O)NCc3ccc(-c4nnn[nH]4)cc3)ncn2)c1` [drawing 267], the “Mean Remaining Parent with NADPH (%)” value [4] was 88.1%.

With `[2H]C([2H])(NC(=O)c1cc(C(=O)NCc2ccc(-c3nn[nH]n3)cc2)ncn1)c1cccc(OC)c1` [drawing 268] the “Mean Remaining Parent with NADPH (%)” value [4] was 95.3%.

For `Cc1cc(CNC(=O)c2cc(C(=O)NCc3ccc(F)c(C)c3)ncn2)ccc1F` [drawing 269], the “Mean Remaining Parent with NADPH (%)” value [4] was 5.3%.

For `[2H]C([2H])(NC(=O)c1cc(C(=O)NC([2H])([2H])c2ccc(F)c(C)c2)ncn1)c1ccc(F)c(C)c1` [drawing 270], the “Mean Remaining Parent with NADPH (%)” value [4] was 5.5%.

With `Cc1cc(CNC(=O)c2cc(C(=O)NCc3ccc(C(=O)O)cc3)ncn2)ccc1F` [drawing 271] the “% Mean Remaining Parent with NADPH (%)” value [5] was 90.7%.

With `[2H]C([2H])(NC(=O)c1cc(C(=O)NCc2ccc(C(=O)O)cc2)ncn1)c1ccc(F)c(C)c1` [drawing 272] the “% Mean Remaining Parent with NADPH (%)” value [5] was 87.4%.

For `[2H]C([2H])(NC(=O)c1cc(C(=O)NCc2ccc(F)c(C)c2)ncn1)c1ccc(C(=O)O)cc1` [drawing 273], the “% Mean Remaining Parent with NADPH (%)” value [5] was 98.5%.

In the case of `COc1cccc(CNC(=O)c2cc(C(=O)NCc3ccc(-c4nnn[nH]4)cc3)ncn2)c1` [drawing 274], the “% Mean Remaining Parent with NADPH (%)” value [5] is reported as 52.8%.

With `[2H]C([2H])(NC(=O)c1cc(C(=O)NCc2ccc(-c3nn[nH]n3)cc2)ncn1)c1cccc(OC)c1` [drawing 275] the “% Mean Remaining Parent with NADPH (%)” value [5] was 57.4%.

For `Cc1cc(CNC(=O)c2cc(C(=O)NCc3ccc(F)c(C)c3)ncn2)ccc1F` [drawing 276], the “% Mean Remaining Parent with NADPH (%)” value [5] was 0.6%.

With `[2H]C([2H])(NC(=O)c1cc(C(=O)NC([2H])([2H])c2ccc(F)c(C)c2)ncn1)c1ccc(F)c(C)c1` [drawing 277] the “% Mean Remaining Parent with NADPH (%)” value [5] was 1.7%.

`[2H]C([2H])(NC(=O)c1cc(C(=O)NCc2ccc(C(=O)O)cc2)ncn1)c1ccc(F)c(C)c1` [drawing 278] showed an inhibition at 10 µM [6] of 8.19%.

With `[2H]C([2H])(NC(=O)c1cc(C(=O)NCc2ccc(C(=O)O)cc2)ncn1)c1ccc(F)c(C)c1` [drawing 279] the inhibition at 10 µM [7] was 2.39%.

`[2H]C([2H])(NC(=O)c1cc(C(=O)NCc2ccc(C(=O)O)cc2)ncn1)c1ccc(F)c(C)c1` [drawing 280] showed an inhibition at 10 µM [8] of 1.83%.

For `[2H]C([2H])(NC(=O)c1cc(C(=O)NCc2ccc(C(=O)O)cc2)ncn1)c1ccc(F)c(C)c1` [drawing 281], the inhibition at 10 µM [9] was 1.31%.

Compound `[2H]C([2H])(NC(=O)c1cc(C(=O)NCc2ccc(C(=O)O)cc2)ncn1)c1ccc(F)c(C)c1` [drawing 282] has an inhibition at 10 µM (MMP-12) of 0.68%.

`[2H]C([2H])(NC(=O)c1cc(C(=O)NCc2ccc(-c3nn[nH]n3)cc2)ncn1)c1cccc(OC)c1` [drawing 283] showed an inhibition at 1 µM ([1]; read-out: Average Percent Inhibition MMP-13) of 92%.

`[2H]C([2H])(NC(=O)c1cc(C(=O)NCc2ccc(C(=O)O)cc2)ncn1)c1ccc(F)c(C)c1` [drawing 284] gave an IC50 [1] of under 100 nM.

Work on `[2H]C([2H])(NC(=O)c1cc(C(=O)NCc2ccc(F)c(C)c2)ncn1)c1ccc(C(=O)O)cc1` [drawing 285] yielded an IC50 [1] of under 100 nM.
